Results: PubChem BioAssay AID248 (DTP/NCI, 2004)
Values joined by “and” are separate entries in the source; they are usually repeats but may differ in a detail not shown here. Identical values can stand only once. Inconclusive results and toxic doses are left out. Numbered stars: 1 amine (or outer) side, 2 acyl side, 3 side chain; on linkers, the order of the positions; unused ones are H or OH. Bridge positions count the residues as written; N and C are the ends. Square brackets hold non-standard residues; d marks the D form. Peptide text beside a SMILES is read from it. I, II: the chains in the order shown. Actinocin(9to1) = Cc1c2oc3c(C)ccc(C(=O)[*:1])c3nc-2c(C(=O)[*:2])c(N)c1=O; X4 = O=C(C1CC(Cl)CN1[*:1])[*:2]; NMeV = CN[CH](C(=O)O)C(C)C; Sar = CNCC(=O)O

Test system: L1210 leukemia ip in BDF1 mice, survival T/C
Experiment: NCI In Vivo Anticancer Drug Screen. Data for tumor model L1210 Leukemia (intraperitoneal) in B6D2F1 (BDF1) mice
Conditions: endpoint: mean survival time, higher = longer survival
How it was run: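 Antitumor effect is assessed in tumor-bearing animals. Survival in the compound arm is compared with a vehicle-dosed control arm and expressed as their quotient.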

[1] = dose: 100.0 mg/kg/injection, schedule: Q01DX001 (ip), vehicle: carboxymethylcellulose (CMC)
[2] = dose: 400.0 mg/kg/injection, schedule: Q01DX001 (ip), vehicle: carboxymethylcellulose (CMC)
[3] = dose: 100.0 mg/kg/injection, schedule: Q04DX003 (ip), vehicle: saline with Tween-80
[4] = dose: 100.0 mg/kg/injection, schedule: Q04DX002 (ip), vehicle: Klucel (hydroxypropylcellulose) (HPC)
[5] = dose: 200.0 mg/kg/injection, schedule: Q04DX002 (ip), vehicle: Klucel (hydroxypropylcellulose) (HPC)
[6] = dose: 400.0 mg/kg/injection, schedule: Q04DX002 (ip), vehicle: Klucel (hydroxypropylcellulose) (HPC)
[7] = dose: 50.0 mg/kg/injection, schedule: Q01DX009 (ip), vehicle: saline
[8] = dose: 100.0 mg/kg/injection, schedule: Q01DX009 (ip), vehicle: saline
[9] = dose: 50.0 mg/kg/injection, schedule: Q01DX009 (ip), vehicle: Klucel (hydroxypropylcellulose) (HPC)
[10] = dose: 100.0 mg/kg/injection, schedule: Q01DX009 (ip), vehicle: Klucel (hydroxypropylcellulose) (HPC)
[11] = dose: 200.0 mg/kg/injection, schedule: Q01DX009 (ip), vehicle: Klucel (hydroxypropylcellulose) (HPC)
[12] = dose: 50.0 mg/kg/injection, schedule: Q04DX002 (ip), vehicle: saline with Tween-80
[13] = dose: 100.0 mg/kg/injection, schedule: Q04DX002 (ip), vehicle: saline with Tween-80
[14] = dose: 200.0 mg/kg/injection, schedule: Q04DX002 (ip), vehicle: saline with Tween-80
[15] = dose: 400.0 mg/kg/injection, schedule: Q01DX009 (ip), vehicle: Klucel (hydroxypropylcellulose) (HPC)
[16] = dose: 100.0 mg/kg/injection, schedule: Q01DX001 (ip), vehicle: saline
[17] = dose: 200.0 mg/kg/injection, schedule: Q01DX001 (ip), vehicle: saline
[18] = dose: 400.0 mg/kg/injection, schedule: Q01DX001 (ip), vehicle: saline
[19] = dose: 100.0 mg/kg/injection, schedule: Q04DX003 (ip), vehicle: saline
[20] = dose: 200.0 mg/kg/injection, schedule: Q01DX009 (ip), vehicle: saline
[21] = dose: 200.0 mg/kg/injection, schedule: Q04DX003 (ip), vehicle: saline
[22] = dose: 50.0 mg/kg/injection, schedule: Q01DX001 (ip), vehicle: saline
[23] = dose: 400.0 mg/kg/injection, schedule: Q01DX009 (ip), vehicle: saline
[24] = dose: 400.0 mg/kg/injection, schedule: Q04DX003 (ip), vehicle: saline

Cc1c2oc3c(C)ccc(C(=O)NC4C(=O)NC(C(C)C)C(=O)N5CC(Cl)CC5C(=O)N(C)CC(=O)N(C)C(C(C)C)C(=O)OC4C)c3nc-2c(C(=O)NC2C(=O)NC(C(C)C)C(=O)N3CC(Cl)CC3C(=O)N(C)CC(=O)N(C)C(C(C)C)C(=O)OC2C)c(N)c1=O (stereo unspecified) (I: TV[X4][Sar][NMeV] / II: TV[X4][Sar][NMeV]; ester I:1-I:C, II:1-II:C; linker I:N-II:N via Actinocin(9to1); configuration not given here)
T/C (dose: 200.0 micrograms/kg/injection, schedule: Q01DX009 (ip), vehicle: saline + alcohol): 117 % of control
T/C (dose: 300.0 micrograms/kg/injection, schedule: Q01DX009 (ip), vehicle: saline + alcohol): 123 % of control
T/C (dose: 600.0 micrograms/kg/injection, schedule: Q01DX009 (ip), vehicle: saline + alcohol): 124 % of control
T/C (dose: 800.0 micrograms/kg/injection, schedule: Q01DX009 (ip), vehicle: saline + alcohol): 156 % of control
T/C (dose: 800.0 micrograms/kg/injection, schedule: Q04DX003 (ip), vehicle: saline + alcohol): 122 % of control
T/C (dose: 4800.0 micrograms/kg/injection, schedule: Q04DX003 (ip), vehicle: saline + alcohol): 121 % of control

CC1C(c2ccccc2)N1C(=O)Nc1ccccc1 (stereo unspecified)
T/C (dose: 100.0 mg/kg/injection, schedule: Q01DX001 (ip), vehicle: Klucel (hydroxypropylcellulose) (HPC)): 93 % of control
T/C (dose: 200.0 mg/kg/injection, schedule: Q01DX001 (ip), vehicle: Klucel (hydroxypropylcellulose) (HPC)): 96 % of control
T/C (dose: 400.0 mg/kg/injection, schedule: Q01DX001 (ip), vehicle: Klucel (hydroxypropylcellulose) (HPC)): 98 % of control

CC(=O)OC1CCCCC1c1cccc(C)c1 (stereo unspecified)
T/C (dose: 100.0 mg/kg/injection, schedule: Q04DX003 (ip), vehicle: acetone): 110 % of control
T/C (dose: 200.0 mg/kg/injection, schedule: Q04DX003 (ip), vehicle: acetone): 102 % of control
T/C (dose: 400.0 mg/kg/injection, schedule: Q04DX003 (ip), vehicle: acetone): 98 % of control

CC(=Nc1ccccc1)C1=C(O)C(CC(C)C)NC1=O (stereo unspecified)
T/C (dose: 50.0 mg/kg/injection, schedule: Q01DX001 (ip), vehicle: carboxymethylcellulose (CMC)): 95 % of control
T/C [1]: 104 % of control
T/C (dose: 200.0 mg/kg/injection, schedule: Q01DX001 (ip), vehicle: carboxymethylcellulose (CMC)): 101 % of control
T/C [2]: 101 % of control

CC1CCC(NC2=NCCO2)C(C)C1 (stereo unspecified)
T/C [3]: 91 % of control

COc1ccc(/C(=N\O)C(C)=O)cc1OC
T/C [4]: 103 % of control
T/C [5]: 103 % of control
T/C [6]: 91 % of control

NCC1CCCO1 (stereo unspecified)
T/C (dose: 25.0 mg/kg/injection, schedule: Q01DX009 (ip), vehicle: saline): 98 % of control
T/C [7]: 95 % of control
T/C [8]: 101 % of control

CN(C)c1ccc(/C=N\N=C/c2ccc(N(C)C)cc2)cc1
T/C [9]: 97 % of control
T/C [10]: 93 % of control
T/C [11]: 103 % of control

Cn1nc(C#N)c(C#N)c1NC(=O)C(C)(C)C
T/C [12]: 92 % of control
T/C [13]: 103 % of control
T/C [14]: 106 % of control

O=C1C(c2ccccc2)=S=C2Sc3ccccc3N12
T/C [10]: 90 % of control

CCCCCCCCCCCCCCCCCCNC(=O)N1CCCCC1C (stereo unspecified)
T/C [10]: 89 % of control
T/C [11]: 96 % of control
T/C [15]: 100 % of control

COc1ccc2c(c1)C/C(=N\O)C2=O
T/C [3]: 102 % of control

CN(Cc1cnc(N)nc1N)c1ccc(C(=O)O)cc1
T/C [1]: 90 % of control
T/C [2]: 92 % of control

CCCCOC(=S)Nc1ccc(S(=O)(=O)c2ccc(NC(=S)OCCCC)cc2)cc1
T/C [16]: 108 % of control
T/C [17]: 102 % of control
T/C [18]: 104 % of control

CN(C)c1ccccc1C(=O)NNC(=S)Nc1ccccc1
T/C [10]: 103 % of control
T/C (dose: 100.0 mg/kg/injection, schedule: Q04DX003 (ip), vehicle: Klucel (hydroxypropylcellulose) (HPC)): 96 % of control
T/C [11]: 96 % of control
T/C (dose: 200.0 mg/kg/injection, schedule: Q04DX003 (ip), vehicle: Klucel (hydroxypropylcellulose) (HPC)): 93 % of control
T/C [15]: 93 % of control
T/C (dose: 400.0 mg/kg/injection, schedule: Q04DX003 (ip), vehicle: Klucel (hydroxypropylcellulose) (HPC)): 94 % of control

O=C1NC(=O)C(=O)C(=O)N1
T/C [7]: 94 % of control
T/C (dose: 50.0 mg/kg/injection, schedule: Q04DX003 (ip), vehicle: saline): 93 % of control
T/C [16]: 94 % of control
T/C [8]: 97 % of control
T/C [19]: 97 % of control
T/C [17]: 108 % of control
T/C [20]: 103 % of control
T/C [21]: 97 % of control

O=C(/C=C/c1ccccc1)c1ccc(O)cc1O
T/C [22]: 97 % of control
T/C [16]: 95 % of control
T/C [17]: 97 % of control

C1=NC(c2ccccc2)=CN(C2CCCCC2)C1(c1ccccc1)C1CCCCC1 (stereo unspecified)
T/C [12]: 99 % of control
T/C [4]: 92 % of control
T/C [13]: 105 % of control
T/C [5]: 98 % of control
T/C [14]: 96 % of control
T/C [6]: 98 % of control

Cc1nc(N)c([N+](=O)[O-])cc1[N+](=O)[O-]
T/C (dose: 100.0 mg/kg/injection, schedule: Q01DX009 (ip), vehicle: acetone): 100 % of control

O=C1c2cc3c(cc2CCC1c1ccc2c(c1)OCO2)OCO3 (stereo unspecified)
T/C (dose: 40.0 mg/kg/injection, schedule: Q01DX009 (ip), vehicle: saline with Tween-80): 88 % of control
T/C (dose: 80.0 mg/kg/injection, schedule: Q01DX009 (ip), vehicle: saline with Tween-80): 88 % of control
T/C (dose: 120.0 mg/kg/injection, schedule: Q01DX009 (ip), vehicle: saline with Tween-80): 94 % of control
T/C (dose: 240.0 mg/kg/injection, schedule: Q01DX009 (ip), vehicle: saline with Tween-80): 94 % of control
T/C (dose: 240.0 mg/kg/injection, schedule: Q01DX009 (ip), vehicle: saline): 93 % of control
T/C (dose: 360.0 mg/kg/injection, schedule: Q01DX009 (ip), vehicle: saline with Tween-80): 96 % of control
T/C (dose: 360.0 mg/kg/injection, schedule: Q01DX009 (ip), vehicle: saline): 96 % of control
T/C (dose: 545.0 mg/kg/injection, schedule: Q01DX009 (ip), vehicle: saline): 91 % of control

CCCCCCCCCCCCCCCCC1Cc2ccccc2C1
T/C [22]: 98 % of control
T/C [16]: 101 % of control
T/C [17]: 107 % of control
T/C [18]: 101 % of control

CCCCCCN(CCCCCC)C(=S)[S-].CCCCCCN(CCCCCC)C(=S)[S-].[Zn]
T/C (dose: 75.0 mg/kg/injection, schedule: Q01DX001 (ip), vehicle: saline): 112 % of control
T/C (dose: 150.0 mg/kg/injection, schedule: Q01DX001 (ip), vehicle: saline): 104 % of control
T/C (dose: 300.0 mg/kg/injection, schedule: Q01DX001 (ip), vehicle: saline): 103 % of control

CC(=O)NC(C)C(C)(C)O (stereo unspecified)
T/C [8]: 101 % of control
T/C [20]: 98 % of control
T/C [23]: 103 % of control

COc1ccc(CN(C(C)=O)c2cc(C)c([N+](=O)[O-])cc2OC)cc1OC
T/C [8]: 90 % of control
T/C [19]: 93 % of control
T/C [20]: 94 % of control
T/C [21]: 100 % of control
T/C [23]: 96 % of control
T/C [24]: 98 % of control

COP(=O)(CN1C(=O)c2ccccc2C1=O)c1ccccc1 (stereo unspecified)
T/C [4]: 94 % of control
T/C [5]: 94 % of control
T/C [6]: 101 % of control

CCOC(=O)/C(C#N)=C1\C=C(NCc2ccccc2)CCC1
T/C [16]: 89 % of control
T/C [17]: 96 % of control
T/C [18]: 92 % of control

O=C1Nc2ccccc2Oc2ccccc21
T/C [8]: 105 % of control
T/C [19]: 92 % of control
T/C [20]: 93 % of control
T/C [21]: 91 % of control
T/C [23]: 98 % of control
T/C [24]: 92 % of control

COc1ccc([N+](=O)[O-])cc1NC(=O)Nc1ccc(SC)cc1
T/C [9]: 90 % of control
T/C [10]: 89 % of control
T/C [11]: 90 % of control and 92 % of control
T/C [15]: 98 % of control

CN(C)CCCN
T/C [16]: 97 % of control
T/C [17]: 108 % of control
T/C [18]: 95 % of control
